# Values quoted from earlier work, collected in PMC7211195 (Investigational New Drugs, 2019).
# Where two headings read alike, the source gives them in different places.
# Key:
# [1] = set-up: method as in PMID 24113148; details: cited from earlier work
# [2] = set-up: method as in PMID 19276246; details: cited from earlier work; for increase in concentration in the brain: abcb1a/1b;abcg2(−/−) mice
# [3] = in rats, cited from earlier work
# [4] = cited from earlier work
structure (smiles),measurement,setting,value
CCN(CC)CCNC(=O)c1c(C)[nH]c(/C=C2\C(=O)Nc3ccc(F)cc32)c1C [sunitinib],DTIBT,[1]; bcrp1(−/−) mice,2.1
same,DTIBT,[1]; mdr1a/b(−/−) mice,3.9
same,DTIBT,[1]; mice with both knockout genes,48.9
Cc1nc(Nc2ncc(C(=O)Nc3c(C)cccc3Cl)s2)cc(N2CCN(CCO)CC2)n1 [dasatinib],brain-to-plasma ratio increase with elacridar,[2]; WT mice,4.4 times
same,increase in concentration in the brain,[2]; intraperitoneal administration,22.7 times
same,increase in concentration in the brain,[2]; oral administration,13.2 times
"COc1cc2c(cc1OC)CN(CCc1ccc(NC(=O)c3cccc4c(=O)c5cccc(OC)c5[nH]c34)cc1)CC2 [Elacridar, 9,10-dihydro-5-methoxy-9-oxo-N-[4-[2-(1,2,3,4-tetrahydro-6,7-dimethoxy-2-isoquinolinyl)ethyl]phenyl]-4-acridine-carboxamide]",bound to plasma proteins,[3]; ref 16,98.1 ± 1.7%
same,bound to plasma proteins,[3]; ref 30,99.0 ± 0.6%
C[C@@H](Oc1cc(-c2cnn(C3CCNCC3)c2)cnc1N)c1c(Cl)ccc(F)c1Cl [crizotinib],"brain accumulation after 24 h, times greater","[4]; 5 mg/kg b.w., knockout vs WT mice",approximately 40 times
same,higher BP exposure than WT mice,"[4]; abcb1a/1b(−/−) and abcb1a/1b;abcg2(−/−) mice, 5 mg/kg b.w.",approximately 2 times
same,"brain accumulation, times greater than in WT mice","[4]; abcb1a/1b(−/−) mice, dose increased ten-fold",approximately 70 times
